From publication PMC8235223, “Four New Chromones from the Endophytic Fungus Phomopsis asparagi DHS-48 Isolated from the Chinese Mangrove Plant Rhizophora mangle” (Marine Drugs, 2021)
pIC50: −log10 of the molar value.

Assays:
Format in all cases: cell-based
[1] = Cell viability (cytotoxicity) CCK-8 assay on murine splenocytes; details: female, BALB/c, mouse, murine splenocytes (spleen lymphocytes), CCK-8 method, mean of n = 3
Protocol: (§1) Female BALB/c mice (6–8 weeks old, 20 ± 2 g) were purchased from the Department of Laboratory Animal Science (Hainan Medicinal University, China). The mice were sacrificed by cervical dislocation, and their spleens were collected in complete RPMI 1640 medium, which was minced with surgical scissors in a germ-free condition. The suspension was then filtered through a sterile sieve mesh to obtain the single cell suspension. After centrifugation (1000 rpm at 4 °C for 5 min), the resulting cells were treated with erythrocytes lysis buffer, followed by washing twice with cold phosphate-buffered saline (PBS). Then, the cells were adjusted to the concentration of 5 × 10^6 cells/mL and resuspended in RPMI 1640 medium supplemented with 10% heat-inactivated fetal bovine serum (FBS).
Cell viability of compounds 1–8 were measured using the tetrazolium salt-based CCK-8 assay according to a previously described protocol with some modifications. Spleen lymphocytes were seeded into 96-well plates at a density of 2 × 10^6 cells/mL onto 96-well plates containing 100 μL of RPMI1640 complete medium (triplicate wells). Then, the cells were treated with 100 μL of various concentrations (3 μg/mL, 6 μg/mL, 12 μg/mL, 25 μg/mL, 50 μg/mL) of isolated compounds or cyclosporine (CsA) at 37 °C with a 5% CO2 incubator for 44 h. […] The optical density was measured at 450 nm on a microplate reader.

[2] = system: LPS-induced B murine splenic lymphocytes; test: LPS-induced B-cell proliferation, immunosuppressive assay (CCK-8); details: Mus musculus, Splenic lymphocyte; LPS-induced murine splenic B lymphocytes in vitro, n = 3
Protocol: as §1
(§2) Compounds 1–8 were evaluated for immunosuppressive activity against the proliferation of concanavalin A (ConA)-induced T and lipopolysaccharide (LPS)-induced B murine splenic lymphocyte in vitro using a CCK-8 method according to previously reported methods. Cyclosporine A was used as a positive control.

[3] = system: ConA-induced T murine splenic lymphocytes; test: ConA-induced T-cell proliferation, immunosuppressive assay (CCK-8); details: Mus musculus, Splenic lymphocyte; ConA-induced murine splenic T lymphocytes in vitro, n = 3
Protocol: as §1, §2

## COC(=O)c1cc(OC)cc2oc3c(c(=O)c12)COC(C)(O)C3 (stereo not drawn) [Compound 5, Diaporchromone A]
[1]
  IC50 at 44 h: 47 µM
[2]
  pIC50: 3.93
[3]
  pIC50: 4.47
